The target in experiment [1] is T1, anti-kynurenine antibody (monoclonal Mouse IgG1a k chain, clone 3D4-F2).
T1 construct: biotinylated whole antibody on streptavidin magnetic beads
As to the kind of experiment: competitive magnetic bead immunoassay, displacement of fluorescent conjugate […] in PBS. It counts as binding.

For experiment [2] the target is unchanged. Briefly: magnetic bead immunoassay, fluorescence of unbound conjugate in supernatant. The experiment is classed as binding.

Each structure is given as a SMILES string.

On to `Nc1ccccc1C(=O)C[C@H](N)C(=O)O` [L-kynurenine], for which the IC50 in experiment [1] was determined as 4 µM.

In experiment [2], `CCN(CC)c1ccc2c(-c3ccccc3C(=O)OCc3cn(CCOCCOCCOCCNC(=O)[C@@H](N)CC(=O)c4ccccc4N)nn3)c3ccc(N(CC)CC)cc3[o+]c2c1` [compound 5, L-Kyn-4EG-RhB] yielded a dissociation constant (Kd) of 5.9 µM. This lies in the single-digit micromolar range.

One may read the IC50 as the midpoint of a concentration-inhibition curve. A higher IC50 goes with weaker potency in that assay. The term Kd denotes the concentration at which binding is half-saturated. Low readings indicate higher affinity, high ones lower affinity.
